# According to US6476199B1, “Reagents for lysergic acid diethylamide immunoassay” (priority 1996, dated 2002):
# How the values were obtained:
# [1] = test system: anti-LSD antibody G648; assay: ELISA microtiter plate assay, plate coated with LSD-BSA label-conjugate 21, antiserum G648; conditions: conjugate 21 coating, 405 nm, FIG. 3
# [2] = light; pH above 7 epimerization at C-8 to iso-LSD; prolonged light oxidation at C-9; cited from earlier work
# [3] = test system: anti-LSD antibody G651; assay: ELISA microtiter plate assay, plate coated with LSD-BSA label-conjugate 21, antiserum G651; conditions: conjugate 21 coating, 405 nm, FIG. 3
# [4] = test system: anti-LSD antibody G648; assay: ELISA microtiter plate assay, plate coated with LSD-BSA label-conjugate 14, antiserum G648; type: binding, goats; conditions: for G648(OD): conjugate 14 coating, 405 nm, FIG. 1
# Procedure: (§1) The novel reagents were tested in an ELISA immunoassay as described in Example 27. The N-indole derived LSD-BSA label-conjugate 14 containing the biphenyl linker was used to compete against known concentrations of LSD for binding to the anti-LSD antibodies, G648 and G651, raised against the LSD immunogen 8.
# [5] = test system: anti-LSD antibody G651; assay: ELISA microtiter plate assay, plate coated with LSD-BSA label-conjugate 14, antiserum G651; type: binding, goats; conditions: for G651(OD): conjugate 14 coating, 405 nm
# Procedure: as §1
# FIG. 2 provides the curve generated from an ELISA microtiter plate assay, as described in Example 27, using nor-LSD as the standard.
# [6] = test system: LSD antibodies; conditions: prior-art antibodies, Van Vunakis 1971; cited from earlier work
compound,measurement,setting,value
"CCN(CC)C(=O)[C@@H]1C=C2c3cccc4[nH]cc(c34)C[C@H]2N(C)C1 [LSD, D-lysergic acid diethyl amide]",G648(OD),[1]; 0.5 ng/mL free LSD,0.52 OD
same,G648(OD),[1]; 1 ng/mL free LSD,0.37 OD
same,G648(OD),[1]; 5 ng/mL free LSD,0.17 OD
same,stability,[2],sensitive to light and alkaline pH
same,G651(OD),[3]; 0.5 ng/mL free LSD,0.5 OD
same,G651(OD),[3]; 1 ng/mL free LSD,0.33 OD
same,G651(OD),[3]; 5 ng/mL free LSD,0.19 OD
same,G648(OD),[4]; 0.5 ng/mL free LSD,0.8 OD
same,G648(OD),[4]; 1 ng/mL free LSD,0.33 OD
same,G648(OD),[4]; 5 ng/mL free LSD,0.25 OD
same,G651(OD),"[5]; 0.5 ng/mL free LSD, FIG. 1",1.05 OD
same,G651(OD),"[5]; 1 ng/mL free LSD, FIG. 1",0.75 OD
same,G651(OD),"[5]; 5 ng/mL free LSD, FIG. 1",0.39 OD
same,G651(OD),"[5]; 5 ng/mL free drug, FIG. 2",0.63 OD
"CCN(CC)C(=O)[C@@H]1C=C2c3cccc4[nH]cc(c34)C[C@H]2NC1 [Nor-LSD, 8β-9,10-didehydro-N,N-diethylergoline-8-carboxamide]",binding of antibody G648 raised against immunogen 8,[4]; in words,bind
same,G651(OD),"[5]; 1 ng/mL free drug, FIG. 2",1.2 OD
same,G651(OD),"[5]; 5 ng/mL free drug, FIG. 2",0.88 OD
same,binding of antibody G651 raised against immunogen 8,[5]; in words,bind
C[C@@H](CO)NC(=O)[C@@H]1C=C2c3cccc4[nH]cc(c34)C[C@H]2N(C)C1 [ergonovine],competition for binding to the LSD antibodies (cross-reactivity),[6],compete for binding
CC(C)C[C@H]1C(=O)N2CCC[C@H]2[C@]2(O)O[C@@](C)(NC(=O)[C@@H]3C=C4c5cccc6[nH]cc(c56)C[C@H]4N(C)C3)C(=O)N12 [ergosine],competition for binding to the LSD antibodies (cross-reactivity),[6],compete for binding
CN1C[C@H](C(=O)N[C@]2(C)O[C@@]3(O)[C@@H]4CCCN4C(=O)[C@H](Cc4ccccc4)N3C2=O)C=C2c3cccc4[nH]cc(c34)C[C@H]21 [ergotamine],competition for binding to the LSD antibodies (cross-reactivity),[6],compete for binding
CC[C@@H](CO)NC(=O)[C@@H]1C=C2c3cccc4c3c(cn4C)C[C@H]2N(C)C1 [methysergide],competition for binding to the LSD antibodies (cross-reactivity),[6],compete for binding
